In patent publication US20250197409A1, “BIFUNCTIONAL COMPOUND AND PHARMACEUTICAL COMPOSITION COMPRISING THE BIFUNCTIONAL COMPOUND, AND METHOD FOR TREATING ANDROGEN RECEPTOR RELATED DISEASE BY USING THE SAME” (ANHORN MEDICINES CO., LTD., priority 2022, published 2025):
Where two headings read alike, the source gives them in different places.

Target: T1, androgen receptor (Homo sapiens, UniProt P10275, T878A)
T1 construct: host or cells: LNCaP.FGC
Experiment: Androgen receptor degradation assay using Western blot analysis
Type: cell-based
Outline: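 LNCaP.FGC cells (2×10^5/well) treated with 10-fold serial dilutions in RPMI from 100 nM stock; untreated cells as negative control. AR Western signal normalized to GAPDH, expressed as % remaining versus untreated (100%). DC50 derived from calibration curve of serial dilutions.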

[1] = 24 h, read-out: Androgen Receptor Remaining (%), LNCaP.FGC cells, 100 nM, 24 hr, normalized to GAPDH, untreated cells = 100%
[2] = read-out: AR DC50 (concentration needed for 50% AR degradation); LNCaP.FGC cells, serial 10x dilutions from 100 nM
[3] = LNCaP.FGC cells, serial 10x dilutions from 100 nM; read-out: AR DC50 (concentration needed for 50% AR degradation)
[4] = 24 h, LNCaP.FGC cells, 100 nM, 24 hr, normalized to GAPDH, untreated cells = 100%; read-out: Androgen Receptor Remaining (%)

T1 sequence (P10275 whole entry T878A): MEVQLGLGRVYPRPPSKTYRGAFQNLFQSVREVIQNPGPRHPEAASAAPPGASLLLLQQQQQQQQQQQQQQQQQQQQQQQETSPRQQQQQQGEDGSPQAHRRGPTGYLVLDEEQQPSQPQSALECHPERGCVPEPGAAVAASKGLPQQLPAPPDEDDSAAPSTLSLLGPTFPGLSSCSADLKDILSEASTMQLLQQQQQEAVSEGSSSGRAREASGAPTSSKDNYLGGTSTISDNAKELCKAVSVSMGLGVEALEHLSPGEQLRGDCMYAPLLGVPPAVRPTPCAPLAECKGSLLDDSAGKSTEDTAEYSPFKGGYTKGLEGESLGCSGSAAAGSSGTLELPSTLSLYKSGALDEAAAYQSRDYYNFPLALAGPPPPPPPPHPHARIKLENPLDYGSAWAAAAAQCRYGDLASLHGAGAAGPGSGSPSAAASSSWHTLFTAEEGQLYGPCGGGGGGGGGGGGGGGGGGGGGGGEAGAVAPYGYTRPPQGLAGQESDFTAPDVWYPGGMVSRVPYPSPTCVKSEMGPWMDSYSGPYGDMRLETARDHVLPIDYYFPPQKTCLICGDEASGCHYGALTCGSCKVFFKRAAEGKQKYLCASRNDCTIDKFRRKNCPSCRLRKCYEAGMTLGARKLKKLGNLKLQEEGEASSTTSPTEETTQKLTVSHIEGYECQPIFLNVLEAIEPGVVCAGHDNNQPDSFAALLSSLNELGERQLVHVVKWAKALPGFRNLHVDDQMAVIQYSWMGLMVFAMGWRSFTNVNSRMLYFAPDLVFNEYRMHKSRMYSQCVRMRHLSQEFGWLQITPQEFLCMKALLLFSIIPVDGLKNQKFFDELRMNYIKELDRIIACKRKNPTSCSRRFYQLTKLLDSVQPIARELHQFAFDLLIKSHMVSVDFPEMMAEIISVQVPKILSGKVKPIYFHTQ
T1 sequence (Q96SW2 whole entry partner): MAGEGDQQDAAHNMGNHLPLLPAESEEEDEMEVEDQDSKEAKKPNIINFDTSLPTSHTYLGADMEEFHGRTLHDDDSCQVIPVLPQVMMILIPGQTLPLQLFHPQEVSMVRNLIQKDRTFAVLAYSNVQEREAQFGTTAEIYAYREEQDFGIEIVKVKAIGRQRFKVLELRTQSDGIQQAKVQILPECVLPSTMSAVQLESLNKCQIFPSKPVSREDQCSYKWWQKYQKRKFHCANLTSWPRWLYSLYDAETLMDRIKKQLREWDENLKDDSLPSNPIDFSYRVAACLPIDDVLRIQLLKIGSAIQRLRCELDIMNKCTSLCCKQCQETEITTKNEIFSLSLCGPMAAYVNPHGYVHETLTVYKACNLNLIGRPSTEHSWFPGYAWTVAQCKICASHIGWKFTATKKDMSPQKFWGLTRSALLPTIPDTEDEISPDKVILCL

SMILES	remaining activity at 0.1 µM [1] [%]	DC50 [2] [nM]	further results
CCn1c2c(c3ccc(OCCOC4CC5(CCN(c6ccc(C(=O)N[C@H]7CC[C@H](N(C)c8ccc(C#N)c(Cl)c8)CC7)nn6)CC5)C4)cc31)C(=O)N(C1CCC(=O)NC1=O)C2=O (stereo partly drawn) [Compound 148]	30	10 to 25	–
CC1(C)[C@H](NC(=O)c2ccc(N3CCN(CCOc4ccc5c6c(sc5c4)C(=O)N(C4CCC(=O)NC4=O)C6=O)CC3)cn2)C(C)(C)[C@H]1Oc1ccc(C#N)c(Cl)c1 (stereo partly drawn) [Compound 7]	–	–	Androgen Receptor Remaining (%) (LNCaP.FGC cells, 100 nM, 24 hr, normalized to GAPDH, untreated cells = 100%): 45%; DC50 [3]: 25 to 100 nM
N#Cc1ccc(O[C@H]2CC[C@H](NC(=O)c3ccc(N4CC5(CCN(CCOc6ccc7c8c(n(CC(F)F)c7c6)C(=O)N(C6CCC(=O)NC6=O)C8=O)CC5)C4)nn3)CC2)cc1Cl (stereo partly drawn) [Compound 103]	52	–	–
Cn1c2c(c3ccc(OCCOC4CC5(CCN(c6ccc(C(=O)N[C@H]7CC[C@H](Oc8ccc(C#N)c(Cl)c8)CC7)nn6)CC5)C4)cc31)C(=O)N(C1CCC(=O)NC1=O)C2=O (stereo partly drawn) [Compound 170]	–	–	DC50 [3]: 25 to 100 nM
Cn1c2c(c3ccc(OCCN4CCCN(c5ccc(C(=O)N[C@H]6CC[C@H](Oc7ccc(C#N)c(Cl)c7)CC6)nn5)CC4)cc31)C(=O)N(C1CCC(=O)NC1=O)C2=O (stereo partly drawn) [Compound 75]	–	–	remaining activity at 0.1 µM [4]: 26%; DC50 [3]: 10 to 25 nM
Cn1c2c(c3ccc(OCCOC4CC5(CCN(c6ccc(C(=O)N[C@H]7CC[C@H](N(C)c8ccc(C#N)c(Cl)c8)CC7)nn6)C5)C4)cc31)C(=O)N(C1CCC(=O)NC1=O)C2=O (stereo partly drawn) [Compound 175]	–	10 to 25	–
Cn1c2c(c3ccc(OCCCN4CC=C(c5ccc(C(=O)N[C@H]6CC[C@H](Oc7ccc(C#N)c(Cl)c7)CC6)nn5)CC4)cc31)C(=O)N(C1CCC(=O)NC1=O)C2=O (stereo partly drawn) [Compound 196]	–	–	DC50 [3]: < 10 nM
Cn1c2c(c3ccc(OCCN4CCN(c5ccc(C(=O)N[C@H]6C(C)(C)[C@H](Oc7ccc(C#N)c(Cl)c7)C6(C)C)cn5)CC4)cc31)C(=O)N(C1CCC(=O)NC1=O)C2=O (stereo partly drawn) [Compound 6]	–	–	remaining activity at 0.1 µM [4]: 31%; DC50 [3]: 25 to 100 nM
Cn1c2c(c3cccc(OCCCN4CCN(c5ccc(C(=O)N[C@H]6C(C)(C)[C@H](Oc7ccc(C#N)c(Cl)c7)C6(C)C)cn5)CC4)c31)C(=O)N(C1CCC(=O)NC1=O)C2=O (stereo partly drawn) [Compound 24]	–	–	remaining activity at 0.1 µM [4]: 62%
CCn1c2c(c3ccc(OCCCN4C[C@H](C)N(c5ccc(C(=O)N[C@H]6CC[C@H](Oc7ccc(C#N)c(Cl)c7)CC6)nn5)C[C@H]4C)cc31)C(=O)N(C1CCC(=O)NC1=O)C2=O (stereo partly drawn) [Compound 59]	66	–	–
Cn1c2c(c3ccc(OCCCCOC4CCN(c5ccc(C(=O)N[C@H]6CC[C@H](Oc7ccc(C#N)c(Cl)c7)CC6)nn5)CC4)cc31)C(=O)N(C1CCC(=O)NC1=O)C2=O (stereo partly drawn) [Compound 187]	–	–	DC50 [3]: 25 to 100 nM
CCn1c2c(c3ccc(OCCN4CCN(c5ccc(C(=O)N[C@H]6CC[C@H](Oc7ccc(C#N)c(Cl)c7)CC6)nn5)[C@H](C)C4)cc31)C(=O)N(C1CCC(=O)NC1=O)C2=O (stereo partly drawn) [Compound 99]	39	25 to 100	–
Cn1c2c(c3ccc(OCCN4CCC5(CC4)CCN(c4ccc(C(=O)N[C@H]6CC[C@H](N(C)c7ccc(C#N)c(Cl)c7)CC6)nn4)CC5)cc31)C(=O)N(C1CCC(=O)NC1=O)C2=O (stereo partly drawn) [Compound 199]	–	10 to 25	–
Cn1c2c(c3ccc(OCCN4CCC(c5ncc(C(=O)N[C@H]6CC[C@H](Oc7ccc(C#N)c(Cl)c7)CC6)cn5)CC4)cc31)C(=O)N(C1CCC(=O)NC1=O)C2=O (stereo partly drawn) [Compound 45]	–	–	DC50 [3]: 25 to 100 nM
N#Cc1ccc(O[C@H]2CC[C@H](NC(=O)c3ccc(N4CCN(CCCOc5ccc6c7c([nH]c6c5)C(=O)N(C5CCC(=O)NC5=O)C7=O)CC4)nn3)CC2)cc1Cl (stereo partly drawn) [Compound 86]	–	–	remaining activity at 0.1 µM [4]: 20%; DC50 [3]: 25 to 100 nM
Cn1c2c(c3ccc(OCCCN4CCC(c5ncc(C(=O)N[C@H]6CC[C@H](Oc7ccc(C#N)c(Cl)c7)CC6)cn5)CC4)cc31)C(=O)N(C1CCC(=O)NC1=O)C2=O (stereo partly drawn) [Compound 44]	–	–	DC50 [3]: 25 to 100 nM
Cn1c2c(c3ccc(OCCCOC4CC5(CCN(c6ccc(C(=O)N[C@H]7CC[C@H](Oc8ccc(C#N)c(Cl)c8)CC7)nn6)C5)C4)cc31)C(=O)N(C1CCC(=O)NC1=O)C2=O (stereo partly drawn) [Compound 179]	–	–	DC50 [3]: 25 to 100 nM
CCn1c2c(c3ccc(OCCCN4[C@H](C)CN(c5ccc(C(=O)N[C@H]6CC[C@H](Oc7ccc(C#N)c(Cl)c7)CC6)nn5)C[C@@H]4C)cc31)C(=O)N(C1CCC(=O)NC1=O)C2=O (stereo partly drawn) [Compound 76]	78	–	–
CCn1c2c(c3ccc(OCCOC4CCN(c5ccc(C(=O)N[C@H]6CC[C@H](Oc7ccc(C#N)c(Cl)c7)CC6)nn5)CC4)cc31)C(=O)N(C1CCC(=O)NC1=O)C2=O (stereo partly drawn) [Compound 153]	109	10 to 25	–

SMILES	remaining activity at 0.1 µM [1] [%]	DC50 [2] [nM]	further results
CCn1c2c(c3ccc(OCCN4CCC5(CC4)CCN(c4ccc(C(=O)N[C@H]6CC[C@H](N(C)c7ccc(C#N)c(Cl)c7)CC6)nn4)CC5)cc31)C(=O)N(C1CCC(=O)NC1=O)C2=O (stereo partly drawn) [Compound 180]	–	< 10	–
CC(C)n1c2c(c3cc(OCCN4CCN(c5ccc(C(=O)N[C@H]6C(C)(C)[C@H](Oc7ccc(C#N)c(Cl)c7)C6(C)C)cc5)CC4)ccc31)C(=O)N(C1CCC(=O)NC1=O)C2=O (stereo partly drawn) [Compound 17]	127	–	–
CCn1c2c(c3ccc(OCC(=O)N4CC5(CCN(c6ccc(C(=O)N[C@H]7CC[C@H](Oc8ccc(C#N)c(Cl)c8)CC7)nn6)CC5)C4)cc31)C(=O)N(C1CCC(=O)NC1=O)C2=O (stereo partly drawn) [Compound 127]	58	–	–
CCn1c2c(c3ccc(OCCN4[C@H](C)CN(c5ccc(C(=O)N[C@H]6CC[C@H](Oc7ccc(C#N)c(Cl)c7)CC6)nn5)C[C@@H]4C)cc31)C(=O)N(C1CCC(=O)NC1=O)C2=O (stereo partly drawn) [Compound 77]	92	–	–
CCn1c2c(c3ccc(OCCCN4CCN(c5ccc(N6C(=S)N(c7ccc(C#N)c(C(F)(F)F)c7)C(=O)C6(C)C)cc5)CC4)cc31)C(=O)N(C1CCC(=O)NC1=O)C2=O (stereo not drawn) [Compound 117]	56	–	–
CCn1c2c(c3ccc(OCC(=O)N4CC5(CCN(c6ccc(C(=O)N[C@H]7CC[C@H](N(C)c8ccc(C#N)c(Cl)c8)CC7)nn6)C5)C4)cc31)C(=O)N(C1CCC(=O)NC1=O)C2=O (stereo partly drawn) [Compound 146]	62	–	–
CCn1c2c(c3ccc(OCCCN4CCC5(CC4)CN(c4ccc(C(=O)N[C@H]6C(C)(C)[C@H](Oc7ccc(C#N)c(Cl)c7)C6(C)C)nn4)C5)cc31)C(=O)N(C1CCC(=O)NC1=O)C2=O (stereo partly drawn) [Compound 49]	36	25 to 100	–
CCn1c2c(c3ccc(OCC(=O)N4CCC5(CC4)CN(c4ccc(C(=O)N[C@H]6CC[C@H](Oc7ccc(C#N)c(Cl)c7)CC6)nn4)C5)cc31)C(=O)N(C1CCC(=O)NC1=O)C2=O (stereo partly drawn) [Compound 123]	33	> 100	–
CC(C)n1c2c(c3cc(OCCN4CCN(c5ccc(C(=O)N[C@H]6C(C)(C)[C@H](Oc7ccc(C#N)c(Cl)c7)C6(C)C)cn5)CC4)ccc31)C(=O)N(C1CCC(=O)NC1=O)C2=O (stereo partly drawn) [Compound 16]	96	–	–
Cn1c2c(c3ccc(OCCOC4CCN(c5ccc(C(=O)N[C@H]6CC[C@H](N(C)c7ccc(C#N)c(Cl)c7)CC6)nn5)CC4)cc31)C(=O)N(C1CCC(=O)NC1=O)C2=O (stereo partly drawn) [Compound 169]	27	10 to 25	–
N#Cc1ccc(O[C@H]2CC[C@H](NC(=O)c3ccc(N4CCN(CCOc5ccc6c7c(n(CC(F)F)c6c5)C(=O)N(C5CCC(=O)NC5=O)C7=O)CC4)nn3)CC2)cc1Cl (stereo partly drawn) [Compound 105]	42	25 to 100	–
Cn1c2c(c3ccc(OCCN4CCN(c5ccc(C(=O)N[C@H]6CC[C@H](Oc7ccc(C#N)c(Cl)c7)CC6)nn5)CC4)cc31)C(=O)N(C1CCC(=O)NC1=O)C2=O (stereo partly drawn) [Compound 3]	–	–	remaining activity at 0.1 µM [4]: 32%; DC50 [3]: 25 to 100 nM
Cn1c2c(c3ccc(OCCOC4CC5(CCN(c6ccc(C(=O)N[C@H]7CC[C@H](N(C)c8ccc(C#N)c(Cl)c8)CC7)nn6)CC5)C4)cc31)C(=O)N(C1CCC(=O)NC1=O)C2=O (stereo partly drawn) [Compound 171]	–	25 to 100	–
CCn1c2c(c3ccc(OCCCN4CCCN(c5ccc(C(=O)N[C@H]6CC[C@H](Oc7ccc(C#N)c(Cl)c7)CC6)nn5)CC4)cc31)C(=O)N(C1CCC(=O)NC1=O)C2=O (stereo partly drawn) [Compound 46]	20	10 to 25	–
CCn1c2c(c3ccc(OCCN4CCC(c5ccc(C(=O)N[C@H]6CC[C@H](Oc7ccc(C#N)c(Cl)c7)CC6)nn5)CC4)cc31)C(=O)N(C1CCC(=O)NC1=O)C2=O (stereo partly drawn) [Compound 206]	–	10 to 25	–
CCn1c2c(c3ccc(OCCN4CCC5(C4)CN(c4ccc(C(=O)N[C@H]6CC[C@H](Oc7ccc(C#N)c(Cl)c7)CC6)nn4)C5)cc31)C(=O)N(C1CCC(=O)NC1=O)C2=O (stereo partly drawn) [Compound 161]	31	10 to 25	–
CC(C)n1c2c(c3cc(OCCN4CCN(c5ccc(C(=O)N[C@H]6C(C)(C)[C@H](Oc7ccc(C#N)c(Cl)c7)C6(C)C)nc5)CC4)ccc31)C(=O)N(C1CCC(=O)NC1=O)C2=O (stereo partly drawn) [Compound 13]	155	–	–
C[Si](C)(C)CCOCn1c2c(c3ccc(OCCCN4CCN(c5ccc(C(=O)N[C@H]6CC[C@H](Oc7ccc(C#N)c(Cl)c7)CC6)nn5)CC4)cc31)C(=O)N(C1CCC(=O)NC1=O)C2=O (stereo partly drawn) [Compound 84]	62	–	–
